Experimental data taken from patent US20240180817A1, “PLANT FERMENTED LIQUID, PLANT FERMENTED PRODUCT PRODUCED USING GLUCONOBACTER THAILANDICUS STRAIN AND USE THEREOF” (LG HOUSEHOLD & HEALTH CARE LTD., priority 2022, published 2024).

Tested on: human keratinocyte HaCaT
Test: Hyaluronic acid synthesis, Quantikine ELISA Hyaluronan
Assay type: cell-based
Details: 30 ppb, 72 hours
Protocol: Samples were treated with human keratinocyte HaCaT for 72 hours at each concentration. Hyaluronic acid synthesis was compared with the control group (DMEM treatment containing 0% serum) using Quantikine ELISA Hyaluronan from R&D Systems to quantify the moisturizing ability.

Compound: CC1=C(/C=C/C(C)=C/C=C/C(C)=C/C(=O)O)C(C)(C)CCC1 [Retinoic acid]
- Hyaluronic Acid Synthesis Ability: 18.6 % of control
